Data from paper PMC6918900, “Concentration-Dependent Activity of Hydromethylthionine on Cognitive Decline and Brain Atrophy in Mild to Moderate Alzheimer’s Disease” (Journal of Alzheimer's Disease, 2019).

Experiments:
[1] = system: tau transgenic mouse model for AD; design: method as in PMID 32091331; conditions: 5 and 15 mg/kg/day; cited from earlier work
[2] = system: patients with mild to moderate Alzheimer's disease; assay: MRI whole brain volume (WBV) change over 65 weeks by plasma exposure; type: in vivo, human; conditions: for WBV Difference ± SEM: split by 8 mg/day Cmax,ss median
Source text: (§1) Pharmacokinetic analyses were undertaken using plasma concentration data from patients who participated in either of two completed Phase III trials which have been described previously [[35, 36]]. In brief, the first (TRx-237-015) was a 15-month study which recruited 890 patients from 115 sites across 16 countries in EU, North America, Asia, and Russia. Patients had to be <90 years of age and have a diagnosis of mild to moderate probable AD according to National Institute of Aging (NIA) and Alzheimer’s Association (AA) criteria and a Mini-Mental State Examination (MMSE) score of 14–26 inclusive and with a Clinical Dementia Rating (CDR) total score of 1 or 2. The second study (TRx-237-005) was an 18-month trial which recruited 800 patients from 108 sites in Canada, United States, Australia, and Europe. Patients had to meet the same age and diagnosis criteria, except that they were required to have a MMSE score of 20–26 inclusive and a CDR total score of 0.5 or 1.0. Concomitant use of AChEIs or memantine (or both) was permitted in both studies provided this was at a stable dose for at least 18 weeks before randomization. Concomitant use of serotonergic antidepressant, antipsychotic (except clozapine or olanzapine), and sedative medications was also permitted at stable doses where clinically feasible. Patients were randomly assigned to receive LMTM at doses of 250, 150, or 8 mg/day in Study 015 and doses of 200 or 8 mg/day in Study TRx-237-005. Randomization in both studies was stratified according to geographical region, use of AD-labelled co-medications, and severity of AD. The co-primary outcomes in both studies were the Alzheimer’s Disease Assessment Scale–cognitive subscale, 11-item version (ADAS-cog11) and the Alzheimer’s Disease Co-operative Study–Activities of Daily Living, 23-item version (ADCS-ADL23) scale measured at baseline and every 3 months. MRI scans were undertaken at screening or baseline and at 3-month intervals. MRI acquisition protocol and parameters were standardized across sites and all data were centrally collected, quality-controlled, and analyzed blind by an imaging core lab (Bioclinica). Volumetric data were used to measure changes in whole brain volume (WBV, which provides a measure of the volume of grey and white matter), lateral ventricular volume (LVV), and other regional volumes including hippocampus, although only the global measures are reported in the present study. Baseline volumes were assessed using FreeSurfer 5.3, and volume change was assessed using Boundary Shift Integral and Tensor Based Morphometry for regional structures. Full details and study protocols for these two trials are available [[35, 36]].
(§2) Having shown a concentration-dependent response for cognitive decline, a mixed-effects model for repeated measures analysis was used to characterize further the relationship between each efficacy endpoint and parent MT plasma exposure (steady state Cmax,ss) according to the following formula: pharmacological activity∼plasma-level×visit+co-medication-status×visit+co-medication-status×plasma-level+geographical-region+CDR-at-baseline+baseline-score×visit
(§3) The following terms were categorical variables in the models: plasma exposure (Cmax,ss) (7 levels), visit (5 levels), co-medication status with AD drugs (2 levels), geographical region (2 levels), and CDR at baseline (3 levels). For the longitudinal analyses, plasma level was described by two levels (above or below threshold).

[3] = system: patients with mild to moderate Alzheimer's disease; assay: ADCS-ADL23 change over 65 weeks by plasma exposure; type: in vivo, human; conditions: for ADCS-ADL Difference ± SEM: split by 8 mg/day Cmax,ss median
Source text: as §1, §2, §3

[4] = system: patients with mild to moderate Alzheimer's disease; assay: MRI lateral ventricular volume (LVV) change over 65 weeks by plasma exposure; type: in vivo, human; conditions: for LVV Difference ± SEM: split by 8 mg/day Cmax,ss median
Source text: as §1, §2, §3

Route of clearance = conditions: in vivo
[5] = system: patients with mild to moderate Alzheimer's disease; assay: ADAS-cog11 change over 65 weeks by plasma exposure; type: in vivo, human; conditions: for ADAS-cog Difference ± SEM: split by 8 mg/day Cmax,ss median
Source text: as §1
The exposure-response analyses were conducted independently by ICPD and verified by TauRx. As a first step in the analysis, the concentration-response data were reviewed for ADAS-cog11 decline at week 65 in all patients receiving LMTM at a dose of 8 mg/day using a sigmoid Emax (maximum response) model not requiring assumptions regarding exposure subgroups. The model was fitted using covariates geographical region, CDR at baseline, co-medication status, and baseline ADAS-cog11. A 90% bootstrap confidence interval was also calculated.
as §2
The following terms were categorical variables in the models: plasma exposure (Cmax,ss) (7 levels), visit (5 levels), co-medication status with AD drugs (2 levels), geographical region (2 levels), and CDR at baseline (3 levels). […]

[6] = LMTM 8 mg/day as add-on therapy, Cmax,ss above vs below 0.373 ng/ml
[7] = LMTM 8 mg/day as monotherapy, Cmax,ss above vs below 0.373 ng/ml
[8] = LMTM 8 mg/day, low Cmax add-on versus high Cmax monotherapy
[9] = all patients, high vs low exposure split by Cmax,ss 0.373 ng/ml, 65 weeks
[10] = patients receiving LMTM 8 mg/day, split by Cmax,ss 0.373 ng/ml, 65 weeks

SMILES: CN(C)c1ccc2c(c1)Sc1cc(N(C)C)ccc1N2 [LMTM, leuco-methylthioninium bis(hydromethanesulphonate)]
- Complex IV activity in brain mitochondria [1]: increase Complex IV activity in brain mitochondria
- acetylcholine levels in hippocampus [1]: increase acetylcholine levels in hippocampus
- choline acetyltransferase activity in basal forebrain [1]: restore choline acetyltransferase activity in basal forebrain
- glutamate release from brain synaptosomes [1]: reverse impairment in glutamate release from brain synaptosomes
- WBV Difference±SEM in change from baseline [2, 6]: 4.69±1.21 cm^3
- WBV Difference ± SEM ([2]; LMTM 8 mg/day as add-on therapy): 4.02 ± 1.17 cm3
- WBV Difference±SEM in change from baseline [2, 7]: 2.76±1.66 cm^3
- WBV Difference ± SEM ([2]; LMTM 8 mg/day as monotherapy): 1.07 ± 1.58 cm3
- WBV Difference±SEM in change from baseline [2, 8]: 11.54±1.87 cm^3
- WBV Difference±SEM in change from baseline [2, 9]: 3.55±1.10 cm^3
- WBV Difference ± SEM ([2]; all patients): 2.47 ± 0.92 cm3
- WBV Difference±SEM in change from baseline [2, 10]: 4.39±1.18 cm^3
- ADCS-ADL23 Difference±SEM in change from baseline [3, 6]: 1.32±1.04
- ADCS-ADL23 Difference±SEM in change from baseline [3, 7]: 0.46±1.47
- ADCS-ADL Difference ± SEM ([3]; LMTM 8 mg/day as monotherapy): 0.52 ± 1.38
- ADCS-ADL23 Difference±SEM in change from baseline [3, 8]: 6.14±1.64
- ADCS-ADL23 Difference±SEM in change from baseline [3, 9]: 0.54±0.94
- ADCS-ADL Difference ± SEM ([3]; all patients): 0.21 ± 0.81
- ADCS-ADL23 Difference±SEM in change from baseline [3, 10]: 1.22±1.01
- LVV Difference±SEM in change from baseline [4, 6]: –1.81±0.39 cm^3
- LVV Difference±SEM in change from baseline [4, 7]: –1.60±0.46 cm^3
- LVV Difference ± SEM ([4]; LMTM 8 mg/day as monotherapy): -0.82 ± 0.44 cm3
- LVV Difference±SEM in change from baseline [4, 8]: –3.15±0.62 cm^3
- LVV Difference±SEM in change from baseline [4, 9]: –1.52±0.34 cm^3
- LVV Difference ± SEM ([4]; all patients): -0.80 ± 0.30 cm3
- LVV Difference±SEM in change from baseline [4, 10]: –1.76±0.38 cm^3
- share of clearance via the kidneys (Route of clearance): 70%
- ADAS-cog11 Difference±SEM in change from baseline [5, 6]: –3.52±0.78
- ADAS-cog11 Difference±SEM in change from baseline [5, 7]: –2.60±1.16
- ADAS-cog Difference ± SEM ([5]; LMTM 8 mg/day as monotherapy): -2.75 ± 1.09
- ADAS-cog11 Difference±SEM in change from baseline [5, 8]: –7.53±1.22
- ADAS-cog11 Difference±SEM in change from baseline [5, 9]: –2.66±0.69
- ADAS-cog Difference ± SEM ([5]; all patients): -1.91 ± 0.59
- ADAS-cog11 Difference±SEM in change from baseline [5, 10]: –3.41±0.76
